Where two headings read alike, the source gives them in different places.
What was measured:
HIV-1NL4-3 = experiment: microbe, parasite or virus in culture; type: cell-based
in vitro = type: cell-based
Procedure: The cytotoxcity assays were performed as described previously. The fitted dose-response curves were generated to calculate EC50 or CC50 using Origin software (OriginLab, Inc.).

HIV-1MJ4 = experiment: Antiviral assay against HIV-1 clade C (pMJ4); type: cell-based; settings: Human immunodeficiency virus 1, IN residue Ala125, read-out: IC50 for inhibition of HIV-1MJ4 replication
HIV-1 [1] = experiment: Antiviral assay, late stage (inhibitor added to producer cells); type: cell-based; settings: Human immunodeficiency virus 1, virions prepared in presence of inhibitor, untreated target cells; called IC50
Procedure: Results represent mean ± SD from three independent experiments.
For late stage experiments, the progeny virions were prepared in the presence of the indicated concentrations of the test inhibitor or diluent control (DMSO) and were then used to infect untreated target cells.

HIV-1 [2] = experiment: Antiviral assay, early stage (inhibitor added to target cells); type: cell-based; settings: called IC50
[3] = tested on: VSV-G pseudotyped HIV-1-Luc in wild type HEK293T cells; experiment: microbe, parasite or virus in culture; type: cell-based; settings: Human immunodeficiency virus 1, HEK-293T
[4] = tested on: VSV-G pseudotyped HIV-1-Luc in PSIP1 KO HEK293T cells; experiment: microbe, parasite or virus in culture; type: cell-based; settings: for EC50: Human immunodeficiency virus 1, HEK-293T
HIV-1 virions [5] = type: cell-based; settings: virions produced in presence of 1 µM KF116
[6] = tested on: LEDGF/p75-dependent HIV-1 integration; experiment: HIV-1 integration site distribution (ligation-mediated PCR, 454-pyrosequencing); type: cell-based
HIV-1 expression = type: cell-based; settings: for inhibition of HIV-1 expression: target cells
[7] = tested on: VSV-G pseudotyped HIV-1-Luc; type: cell-based
A128T IN HIV-1NL4-3 = experiment: A128T HIV-1 infectivity in TZM-bl cells; type: cell-based; settings: particles produced in presence of inhibitor
HIV-1 virions [8] = experiment: Virion RNA packaging; type: cell-based; settings: 1 µM KF116
Procedure: HEK293T cells (2×10^6 cells/100 mm culture dish in 10 ml of complete medium) were transfected with HIV-1 provirus (pNL4-3) and cultured for 24 h to ensure expression of the provirus as described above. Next, the cells were treated with the indicated inhibitor or diluent control (DMSO) for 1 h. The culture supernatant was replaced with fresh complete medium containing either the inhibitor or DMSO, and cells were then cultured for another 24 h to allow for the production of HIV-1 particles in the presence of the inhibitor or diluent control. The virus containing cell-free supernatant was collected, filtered through a 0.45 µm filter, and concentrated over a 25% sucrose cushion by ultra-centrifugation at 28,000 rpm for 2 h at 4°C in SW41 rotor (Beckman). […] RNA was isolated from the pelleted virions and subsequent cDNA preparations were used for gag quantitative PCR as described above. Relative virion RNA packaging was calculated by normalizing virion Gag RNA copy numbers to Gag p24.
In parallel, aliquots of cell-free virus-containing supernatant were used to measure the amount of viral particles produced using HIV-1 Gag p24 ELISA. Virion RNA packaging was calculated by normalizing virion Gag RNA copy numbers to Gag p24. […]

[9] = tested on: initiation of reverse transcription; experiment: tRNALys3 primer extension assay; type: biochemical, HIV-1; settings: virions produced with 1 µM KF116
[10] = tested on: HIV-1 virions in HEK293T cells; experiment: Viral entry assay; type: cell-based; settings: virions produced with 1 µM KF116
IN in HIV-1 virions = IN in HIV-1 virions (Human immunodeficiency virus type 1 group M subtype B, UniProt P12497); experiment: Virion-associated IN cross-linking assay (BS3); type: cell-based; settings: virions from cells treated with 1 µM KF116
Procedure: (A) DLS analysis of KF116-induced multimerization of recombinant IN. […] The indicated volumes of cross-linked reaction products were resolved by SDS-PAGE and immunoblotted with HIV-1 IN antibody. The bands corresponding to IN “monomer”, “dimer”, and “higher order oligomers” are indicated.
The IN cross-linking assay was performed as described previously. Briefly, concentrated virions equivalent to 50 ng of HIV-1 p24 were cross-linked with 50 µM bis(sulfosuccinimidyl)suberate (BS^3) cross-linking reagent (Thermo Scientific). Subsequent cross-linked reaction products were quenched and resolved by SDS-PAGE (4–12%, Invitrogen) and immunoblotted.

HIV-1 IN [11] = biological target: T1, HIV-1 IN (Human immunodeficiency virus type 1 group M subtype B, UniProt P12497); settings: IC50 for inhibiting IN-LEDGF/p75 binding divided by EC50 for aberrant IN multimerization; fold
Procedure: (§1) HTRF-based IN multimerization and IN-LEDGF/p75 binding assays were carried out as described previously [33]. The HTRF signal was recorded using a Perkin Elmer Multimode EnSpire plate reader.

HIV-1 IN [12] = biological target: T1, HIV-1 IN; experiment: biochemical
Procedure: as §1

[13] = Target, 5 µM, *** P<0.001 vs DMSO
[14] = target cells, 10 µM, *** P<0.001 vs DMSO

SMILES: Cc1nc(-c2nc3ccc(Cl)cc3[nH]2)c(C)c(-c2ccccc2)c1C(OC(C)(C)C)C(=O)O (stereo not shown) [KF116]
- IC50 (HIV-1NL4-3; Human immunodeficiency virus 1, read-out: Antiviral activity (IC50), HIV-1NL4-3, full replication cycle): ~24 nM
- EC50 (HIV-1NL4-3; Human immunodeficiency virus 1, read-out: EC50, Full Replication Cycle, KF116 added to both producer and target cells, mean ± SD, three experiments): 24 nM
- CC50 (in vitro): > 100000 nM
- IC50 (HIV-1MJ4): 127 ± 10 nM
- EC50 (HIV-1 [1]): ~30 nM
- EC50 (HIV-1 [2]; Human immunodeficiency virus 1, read-out: EC50, Early Stage, target cells, inhibitor added to target cells, untreated virions): 50900 ± 4300 nM
- EC50 (HIV-1 [2]; read-out: EC50, Early Stage, target cells, inhibitor added to target cells, untreated virions): ~50000 nM
- EC50 ([3]; read-out: EC50, WT producer cells): ~69 nM
- EC50 ([3]; read-out: EC50, WT target cells): > 50000 nM
- effect of complete loss of LEDGF/p75 protein in virus-producer cells on IC50 values [4]: did not alter
- EC50 ([4]; read-out: EC50, KO producer cells): ~75 nM
- EC50 ([4]; read-out: EC50, KO target cells): ~1400 nM
- eccentric cores among mature virions (HIV-1 virions [5]): ~95%
- % in RefSeq (HIV-1 integration frequency) ([6]; Producer, 100 nM): 82.67%
- % in known genes (HIV-1 integration frequency) ([6]; Producer, 100 nM): 83.79%
- % in RefSeq (HIV-1 integration frequency) [6, 13]: 81.17%
- % in known genes (HIV-1 integration frequency) [6, 13]: 82.38%
- % in RefSeq (HIV-1 integration frequency) [6, 14]: 83.17%
- % in known genes (HIV-1 integration frequency) [6, 14]: 84.31%
- inhibition of HIV-1 expression (HIV-1 expression; 5 µM): did not significantly inhibit HIV-1 expression
- inhibition of HIV-1 expression (HIV-1 expression; 10 µM): did not significantly inhibit HIV-1 expression
- reduction in target cell HIV-1 expression (HIV-1 expression; virus-producer cells treated with 0.1 µM): ~77%
- effect on replication intermediates in target cells of virions produced in presence of inhibitor [7]: sharply reduced levels of early and late RT products
- effect on replication intermediates when inhibitor added to target cells [7]: had no effects on reverse transcription, integration, levels of 2-LTRs, or viral expression
- A128T IN HIV-1NL4-3 replication in infected cells (A128T IN HIV-1NL4-3): effectively impaired
- effect on viral genomic RNA packaging (HIV-1 virions [8]): did not affect
- effect on annealing of tRNALys3 primer to viral RNA template (primer extension) [9]: did not significantly affect
- effect on viral entry (incoming genomic RNA in target cells) [10]: does not significantly compromise viral entry
- IN multimerization in virions after BS3 cross-linking (IN in HIV-1 virions): levels of IN dimers increased and new slower migrating bands were observed
- Selectivity ratio, IC50 IN-LEDGF/EC50 aberrant IN multimerization (HIV-1 IN [11]): 58.5
- EC50 (HIV-1 IN [12]): 86 ± 6 nM
